# Reference: patent US20100076015A1, “Aminopyridine Derivatives” (VANTIA LIMITED, priority 2008, published 2010)
# Molecular target: T1, Human KLK1 (Homo sapiens, UniProt P06870)
# T1 construct: purchased Callbiochem (Calbiochem)
# Assay: Determination of the IC50 for KLK1 (fluorogenic substrate H-DVal-Leu-Arg-AFC)
# Type: biochemical
# Conditions: 37° C.
# Description: Determination of the IC50 for KLK1
# KLK1 inhibitory activity in vitro was determined using standard published methods (see e.g. Johansen et al., Int. J. Tiss. Reac. 1986, 8, 185; Shori et al., Biochem. Pharmacol., 1992, 43, 1209; Stürzebecher et al., Biol. Chem. Hoppe-Seyler, 1992, 373, 1025). Human KLK1 (Callbiochem) was incubated at 37° C. with the fluorogenic substrate H-DVal-Leu-Arg-AFC and various concentrations of the test compound. Residual enzyme activity (initial rate of reaction) was determined by measuring the change in optical absorbance at 410 nm and the IC50 value for the test compound was determined.
# T1 sequence (P06870 25-262): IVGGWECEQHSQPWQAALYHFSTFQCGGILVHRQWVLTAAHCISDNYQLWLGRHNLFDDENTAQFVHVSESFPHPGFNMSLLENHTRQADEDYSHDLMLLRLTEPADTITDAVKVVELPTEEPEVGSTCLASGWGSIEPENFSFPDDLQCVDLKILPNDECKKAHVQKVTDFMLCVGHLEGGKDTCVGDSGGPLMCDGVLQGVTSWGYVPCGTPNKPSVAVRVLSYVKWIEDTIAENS
row,IC50,SMILES
1,192 nM,"Cc1ccc(-c2ccc(C(=O)N[C@@H](Cc3ccccc3Cl)C(=O)NCc3ccc(N)nc3)[nH]2)cc1 [Example 295, 5-p-Tolyl-1H-pyrrole-2-carboxylic acid [(S)-1-[(6-amino-pyridin-3-ylmethyl)-carbamoyl]-2-(2-chloro-phenyl)-ethyl]-amide]"
2,48.1 nM,"Nc1ccc(CNC(=O)[C@H](Cc2cc(F)cc(F)c2)NC(=O)c2cc3ccccc3[nH]2)cn1 [Example 323, 1H-Indole-2-carboxylic acid [(S)-1-[(6-amino-pyridin-3-ylmethyl)-carbamoyl]-2-(3,5-difluoro-phenyl)-ethyl]-amide]"
3,2.2 nM,"Nc1ccc(CNC(=O)[C@H](Cc2cccc3ccccc23)NC(=O)[C@H]2CCCCN2)cn1 [Example 75, (R)-Piperidine-2-carboxylic acid {(S)-1-[(6-amino-pyridin-3-ylmethyl)-carbamoyl]-2-naphthalen-1-ylethyl}-amide]"
4,0.71 nM,"CCC(C)[C@@H](N)C(=O)N[C@@H](CC1CCCC2CCCCC21)C(=O)NCc1ccc(N)nc1C (stereo partly drawn) [Example 187, (R)-2-Amino-3-methyl-pentanoic acid [(S)-1-[(6-amino-2-methyl-pyridin-3-ylmethyl)-carbamoyl]-2-(decahydro-naphthalen-1-yl)-ethyl]-amide]"
5,3.1 nM,"Cc1cc[nH]c1C(=O)N[C@@H](Cc1ccc(Cl)c(Cl)c1)C(=O)NCc1ccc(N)nc1 [Example 264, 3-Methyl-1H-pyrrole-2-carboxylic acid [(S)-1-[(6-amino-pyridin-3-ylmethyl)-carbamoyl]-2-(3,4-dichloro-phenyl)-ethyl]-amide]"
6,8.2 nM,"Cc1cc[nH]c1C(=O)N[C@@H](Cc1ccc(Cl)cc1)C(=O)NCc1ccc(N)nc1 [Example 267, 3-Methyl-1H-pyrrole-2-carboxylic acid [(S)-1-[(6-amino-pyridin-3-ylmethyl)-carbamoyl]-2-(4-chloro-phenyl)-ethyl]-amide]"
7,5.1 nM,"Cc1nc(N)ccc1CNC(=O)[C@H](Cc1ccc(Cl)c(Cl)c1)NC(=O)[C@H](N)Cc1ccc(F)cc1 [Example 194, (R)-2-Amino-N-[(S)-1-[(6-amino-2-methyl-pyridin-3-ylmethyl)-carbamoyl]-2-(3,4-dichloro-phenyl)-ethyl]-3-(4-fluoro-phenyl)-propionamide]"
8,1.4 nM,"Cc1ccc(C[C@H](NC(=O)[C@H]2CCCN2C(C)C)C(=O)NCc2ccc(N)nc2)cc1 [Example 123, (R)-1-Isopropyl-pyrrolidine-2-carboxylic acid {(S)-1-[(6-amino-pyridin-3-ylmethyl)-carbamoyl]-2-p-tolyl-ethyl}-amide]"
9,37.2 nM,"COc1ccc(C[C@H](NC(=O)c2[nH]c(C)cc2C)C(=O)NCc2ccc(N)nc2)cc1 [Example 254, 3,5-Dimethyl-1H-pyrrole-2-carboxylic acid [(S)-1-[(6-amino-pyridin-3-ylmethyl)-carbamoyl]-2-(4-methoxy-phenyl)-ethyl]-amide]"
10,13.9 nM,"CN[C@@H](C)C(=O)N[C@@H](Cc1ccc(F)c(F)c1)C(=O)NCc1ccc(N)nc1 [Example 85, (S)—N-[(S)-1-[(6-Amino-pyridin-3-ylmethyl)-carbamoyl]-2-(3,4-difluoro-phenyl)-ethyl]-2-methylamino-propionamide]"
11,54.5 nM,"Nc1ccc(CNC(=O)[C@H](Cc2ccc(F)c(F)c2)NC(=O)CN2CCCC2)cn1 [Example 366, (S)—N-(6-Amino-pyridin-3-ylmethyl)-3-(3,4-difluoro-phenyl)-2-(2-pyrrolidin-1-yl-acetylamino)-propionamide]"
12,30.5 nM,"Nc1ccc(CNC(=O)[C@H](Cc2cccc3ccccc23)NC(=O)c2ncc[nH]2)cn1 [Example 289, 1H-Imidazole-2-carboxylic acid {(S)-1-[(6-amino-pyridin-3-ylmethyl)-carbamoyl]-2-naphthalen-1-yl-ethyl}-amide]"
13,39.7 nM,"CN(C)CC(=O)N[C@@H](C(=O)NCc1ccc(N)nc1)C(C1CCCCC1)C1CCCCC1 [Example 222, (R)—N-(6-Amino-pyridin-3-ylmethyl)-3,3-dicyclohexyl-2-(2-dimethylamino-acetylamino)-propionamide]"
14,25.9 nM,"CCN(CC)[C@@H](CO)C(=O)N[C@@H](Cc1ccc(F)c(F)c1)C(=O)NCc1ccc(N)nc1 [Example 362, (S)—N-[(S)-1-[(6-Amino-pyridin-3-ylmethyl)-carbamoyl]-2-(3,4-difluoro-phenyl)-ethyl]-2-diethylamino-3-hydroxy-propionamide]"
15,4.8 nM,"COC(=O)c1ccc(C(=O)N[C@@H](Cc2cccc(C(F)(F)F)c2)C(=O)NCc2ccc(N)nc2)[nH]1 [Example 274, 5-[(S)-1-[(6-Amino-pyridin-3-ylmethyl)-carbamoyl]-2-(3-trifluoromethyl-phenyl)-ethylcarbamoyl]-1H-pyrrole-2-carboxylic acid methyl ester]"
16,1.8 nM,"Nc1ccc(CNC(=O)[C@H](Cc2ccc(F)c(F)c2)NC(=O)[C@H]2CCCCN2)cn1 [Example 74, (R)-Piperidine-2-carboxylic acid [(S)-1-[(6-amino-pyridin-3-ylmethyl)-carbamoyl]-2-(3,4-difluoro-phenyl)-ethyl]-amide]"
17,85.4 nM,"Cc1c[nH]c(C(=O)N[C@@H](Cc2cccc(Cl)c2)C(=O)NCc2ccc(N)nc2)c1 [Example 259, 4-Methyl-1H-pyrrole-2-carboxylic acid [(S)-1-[(6-amino-pyridin-3-ylmethyl)-carbamoyl]-2-(3-chloro-phenyl)-ethyl]-amide]"
18,626 nM,"CCC(C)[C@@H](N)C(=O)N[C@@H](Cc1ccc(O)cc1)C(=O)NCc1ccc(N)nc1 (stereo partly drawn) [Example 37, (R)-2-Amino-3-methyl-pentanoic acid [(S)-1-[(6-amino-pyridin-3-ylmethyl)-carbamoyl]-2-(4-hydroxy-phenyl)-ethyl]-amide]"
19,17.7 nM,"CC(C)N(C)[C@H](C)C(=O)N[C@@H](Cc1ccc(Cl)c(Cl)c1)C(=O)NCc1ccc(N)nc1 [Example 151, (R)—N-[(S)-1-[(6-Amino-pyridin-3-ylmethyl)-carbamoyl]-2-(3,4-dichloro-phenyl)-ethyl]-2-(isopropyl-methyl-amino)-propionamide]"
20,6.7 nM,"Cc1nc(N)ccc1CNC(=O)[C@H](Cc1ccc(F)c(F)c1)NC(=O)[C@H]1CCCN1C [Example 205, (R)-1-Methyl-pyrrolidine-2-carboxylic acid [(S)-1-[(6-amino-2-methyl-pyridin-3-ylmethyl)-carbamoyl]-2-(3,4-difluoro-phenyl)-ethyl]-amide]"
21,55.5 nM,"NCC(=O)N[C@@H](C(=O)NCc1ccc(N)nc1)C(C1CCCCC1)C1CCCCC1 [Example 220, (R)-2-(2-Amino-acetylamino)-N-(6-amino-pyridin-3-ylmethyl)-3,3-dicyclohexyl-propionamide]"
22,21.6 nM,"Cc1cc[nH]c1C(=O)N[C@@H](Cc1ccccc1F)C(=O)NCc1ccc(N)nc1 [Example 265, 3-Methyl-1H-pyrrole-2-carboxylic acid [(S)-1-[(6-amino-pyridin-3-ylmethyl)-carbamoyl]-2-(2-fluoro-phenyl)-ethyl]-amide]"
23,9.2 nM,"CCC(C)[C@@H](N)C(=O)N[C@@H](Cc1cc(F)c(F)cc1F)C(=O)NCc1ccc(N)nc1 (stereo partly drawn) [Example 38, (R)-2-Amino-3-methyl-pentanoic acid [(S)-1-[(6-amino-pyridin-3-ylmethyl)-carbamoyl]-2-(2,4,5-trifluoro-phenyl)-ethyl]-amide]"
24,4.3 nM,"Nc1ccc(CNC(=O)[C@H](Cc2ccc(F)c(F)c2)NC(=O)[C@H]2CCCN2Cc2ccccc2)cn1 [Example 140, (R)-1-Benzyl-pyrrolidine-2-carboxylic acid [(S)-1-[(6-amino-pyridin-3-ylmethyl)-carbamoyl]-2-(3,4-difluoro-phenyl)-ethyl]-amide]"
25,1.3 nM,"CN1CCC[C@@H]1C(=O)N[C@@H](Cc1ccc(F)cc1)C(=O)NCc1ccc(N)nc1 [Example 98, (R)-1-Methyl-pyrrolidine-2-carboxylic acid [(S)-1-[(6-amino-pyridin-3-ylmethyl)-carbamoyl]-2-(4-fluoro-phenyl)-ethyl]-amide]"
26,0.77 nM,"Cc1cccc(C[C@H](NC(=O)[C@H](C)N(C)C(C)C)C(=O)NCc2ccc(N)nc2)c1 [Example 414, (S)—N-{(S)-1-[(6-Amino-pyridin-3-ylmethyl)-carbamoyl]-2-m-tolyl-ethyl}-2-(isopropyl-methyl-amino)-propionamide]"
27,2.7 nM,"CCN(CC)[C@@H](C)C(=O)N[C@@H](Cc1ccc(F)cc1)C(=O)NCc1ccc(N)nc1 [Example 376, (S)—N-[(S)-1-[(6-Amino-pyridin-3-ylmethyl)-carbamoyl]-2-(4-fluoro-phenyl)-ethyl]-2-diethylamino-propionamide]"
28,0.63 nM,"CC(C)N(C)C(C)C(=O)NC(Cc1cccc(Cl)c1)C(=O)NCc1ccc(N)nc1 [Example 409, (S)—N-[(S)-1-[6-Amino-pyridin-3-ylmethyl)-carbamoyl]-2-(3-chloro-phenyl)-ethyl]-2-(isopropyl-methyl-amino)-propionamide]"
29,4.5 nM,"Cc1cc(C)c(C(=O)N[C@@H](Cc2cccc(Cl)c2)C(=O)NCc2ccc(N)nc2C)[nH]1 [Example 279, 3,5-Dimethyl-1H-pyrrole-2-carboxylic acid [(S)-1-[(6-amino-2-methyl-pyridin-3-ylmethyl)-carbamoyl]-2-(3-chloro-phenyl)-ethyl]-amide]"
30,11.1 nM,"CC(C)[C@@H](C(=O)N[C@@H](Cc1ccc(F)c(F)c1)C(=O)NCc1ccc(N)nc1)N(C)C(C)C [Example 348, (S)—N-[(S)-1-[(6-Amino-pyridin-3-ylmethyl)-carbamoyl]-2-(3,4-difluoro-phenyl)-ethyl]-2-(isopropyl-methyl-amino)-3-methyl-butyramide]"
